According to patent US10137170B2, “Lipidated incretin receptor ligand human immunoglobulin Fc-region fusion polypeptides” (INDIANA UNIVERSITY RESEARCH AND TECHNOLOGY CORPORATION, priority 2013, dated 2018):
Starred links: 1 amine or outer side, 2 acyl side, 3 side chain; linkers in the order of their positions; H or OH if unused. Positions of bridges follow the written chain, without caps; N, C: chain ends. Non-standard residues stand in square brackets, D forms with d. Groups on a side chain read outwards from the residue. Chains are numbered I, II in the order given. *: point of attachment. γGlu = O=C(O)[C@H](CCC(=O)[*:2])N[*:1]; Desaminotyrosyl = O=C(CCc1ccc(O)cc1)*; Palmitoyl = CCCCCCCCCCCCCCCC(=O)*; X1 = O=C(C[*:1])[*:2]; Aib = CC(C)(N)C(=O)O

Columns and labels:
Format in all cases: cell-based
[1] = biological target: T1, human GCG-R (Homo sapiens, UniProt P47871); assay: Cyclic AMP (cAMP) assay, cell-suspension format, stably expressed human GCG-receptor in CHO cells; details: for EC50: Table 1, cAMP, CHO cells
T1 construct: host or cells: CHO-K1 (cAMP Hunter)
Procedure: (§1) On the day of the experiment, the medium was removed and the cell monolayer was washed with 10 mL phosphate buffered saline (PBS) per flask. […] The flask was gently tapped and the cell suspension was pooled. The cell suspension was centrifuged for 3 min. at 150×g, and supernatant was discarded. The cell pellet was resuspended in assay buffer and cell number determined. Cell concentration was adjusted to 2×10^5 cells/mL. A 25 μL cell suspension aliquot was transferred into each well of a 96-well plate using Multi-drop dispenser (5000 cells/well). A 25 μL aliquot of diluted compound was transferred to the cell plate and the cell suspension incubated for 30 min. at RT on a plate shaker (450 rpm). The reaction was stopped by addition of lysis buffer and cAMP generated was determined using the cAMP dynamic 2 kit from Cisbio following the manufacturer's instructions. The time resolved fluorescence signal was determined using an EnVision (PerkinElmer). Cyclic AMP production was calculated based on standard curve run in parallel for every experiment. Data were analyzed using Excel Fit software.

[2] = biological target: T2, human GLP-R (Homo sapiens, UniProt P43220); assay: Cyclic AMP (cAMP) assay, cell-suspension format, stably expressed human GLP-1-receptor in CHO cells
T2 construct: host or cells: CHO-K1 (cAMP Hunter)
Procedure: as §1

[3] = biological target: T3, GIP-R (Homo sapiens, UniProt P48546); assay: Cyclic AMP (cAMP) assay, cell-suspension format, stably expressed human GIP-receptor in CHO cells
T3 construct: host or cells: CHO-K1 (cAMP Hunter)
T3 sequence (P48546 22-466): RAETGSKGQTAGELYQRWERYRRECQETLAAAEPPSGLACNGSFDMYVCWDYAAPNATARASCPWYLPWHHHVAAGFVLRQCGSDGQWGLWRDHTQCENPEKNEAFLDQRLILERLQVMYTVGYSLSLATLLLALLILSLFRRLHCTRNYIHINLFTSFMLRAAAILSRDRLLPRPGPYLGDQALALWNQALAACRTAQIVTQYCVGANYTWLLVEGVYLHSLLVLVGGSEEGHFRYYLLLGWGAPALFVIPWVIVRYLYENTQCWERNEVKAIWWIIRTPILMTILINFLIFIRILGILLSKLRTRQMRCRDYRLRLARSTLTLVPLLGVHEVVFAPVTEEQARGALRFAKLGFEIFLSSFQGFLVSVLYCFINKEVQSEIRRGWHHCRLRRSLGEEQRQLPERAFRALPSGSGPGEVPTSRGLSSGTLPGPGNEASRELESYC
Procedure: as §1

[4] = Table 1, relative to GCG maximum
[5] = Table 1, relative to GLP-1 maximum
[6] = Table 1, relative to GIP maximum

T1 sequence (P47871 26-477): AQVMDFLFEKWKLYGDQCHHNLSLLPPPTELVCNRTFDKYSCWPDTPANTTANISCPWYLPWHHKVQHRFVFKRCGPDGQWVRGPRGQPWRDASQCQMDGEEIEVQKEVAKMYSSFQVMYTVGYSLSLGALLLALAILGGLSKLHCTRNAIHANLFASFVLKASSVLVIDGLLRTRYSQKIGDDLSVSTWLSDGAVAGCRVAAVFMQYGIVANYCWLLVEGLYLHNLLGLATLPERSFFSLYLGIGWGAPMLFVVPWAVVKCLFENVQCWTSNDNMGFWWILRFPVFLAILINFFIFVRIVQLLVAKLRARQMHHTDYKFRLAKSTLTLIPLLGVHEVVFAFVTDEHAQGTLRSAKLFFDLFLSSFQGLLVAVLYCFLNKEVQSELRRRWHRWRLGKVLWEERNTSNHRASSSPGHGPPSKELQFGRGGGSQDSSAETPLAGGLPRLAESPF
T2 sequence (P43220 24-463): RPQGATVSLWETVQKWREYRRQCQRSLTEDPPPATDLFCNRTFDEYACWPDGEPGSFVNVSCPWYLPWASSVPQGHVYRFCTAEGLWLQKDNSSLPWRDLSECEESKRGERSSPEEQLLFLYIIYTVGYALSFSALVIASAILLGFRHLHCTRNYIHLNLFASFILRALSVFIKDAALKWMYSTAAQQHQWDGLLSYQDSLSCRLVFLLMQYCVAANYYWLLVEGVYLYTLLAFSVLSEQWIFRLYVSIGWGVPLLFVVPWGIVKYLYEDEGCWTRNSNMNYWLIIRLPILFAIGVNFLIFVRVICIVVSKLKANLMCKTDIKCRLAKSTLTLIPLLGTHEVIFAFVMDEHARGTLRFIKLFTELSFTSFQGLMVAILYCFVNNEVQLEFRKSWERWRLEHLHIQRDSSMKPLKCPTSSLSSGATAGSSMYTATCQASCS

Substance | EC50 [1] [nM] | human GCG-R % max GCG [1, 4] [%] | EC50 ([2]; Table 1, cAMP, CHO cells) [nM] | human GLP-R % max GLP-1 [2, 5] [%] | EC50 ([3]; Table 1, cAMP, CHO cells) [nM] | human GIP-R % max GIP [3, 6] [%] | human GCG-R % max GCG ([1]; comparative table) [%] | human GLP-R % max GLP-1 ([2]; comparative table) [%] | human GIP-R % max GIP ([3]; comparative table) [%] | EC50 ([3]; comparative table) [nM] | EC50 ([2]; comparative table) [nM]
Dulaglutide [reference compound] | > 600 | 1.6 | 0.129 | 98.2 | > 600 | 13.8 | – | – | – | – | –
I: Ac-[dY]ALGTFTSDK([γGlu-Palmitoyl])SKYLDERAAQDFVQWLLEGGPSSGAPPPSC-NH2 / II: GGGLPETGGSGS-OH (linker I:40-II:N via X1) [compound 12] | – | – | – | – | – | – | 100 | 94 | 90 | – | –
I: Ac-[dY]AVGTFTSDK([γGlu-Palmitoyl])SKYLDERAAQDFVQWLLEGGPSSGAPPPSC-NH2 / II: GGGLPETGGSGS-OH (linker I:40-II:N via X1) [compound 13] | – | – | – | – | – | – | 99 | 73 | 91 | – | –
I: Desaminotyrosyl-AEGTFTSDK([γGlu-Palmitoyl])SKYLDERAAQDFVQWLLEGGPSSGAPPPSC-NH2 / II: GGGLPETGGSGS-OH (linker I:39-II:N via X1) [compound 11] | – | – | – | – | – | – | 28 | 67 | 83 | – | –
I: H-Y[Aib]EGTFTSDK([γGlu-γGlu-Palmitoyl])SIYLDKQAA[Aib]EFVNWLLAGGPSSGAPPPSC-NH2 / II: GGGLPETGGSGS-OH (linker I:40-II:N via X1) [compound 9] | 8.86 | 109.0 | – | 99.9 | – | 90.7 | 109 | 91 | 100 | 0.01 | –
I: H-Y[Aib]EGTFTSDK([γGlu-γGlu-Palmitoyl])SIYLDKQAA[Aib]EFVNWLLAGGPSSGAPPPSC-NH2 / II: LPETGGSGS-OH (linker I:40-II:N via X1) [compound 10] | – | 100.2 | – | 96.7 | – | 86.7 | 98 | 96 | 97 | 0.01 | 0.02
